According to ChEMBL document CHEMBL3102729, “Synthesis, hypoglycemic activity and molecular modeling studies of pyrazole-3-carbohydrazides designed by a CoMFA model” (2013):

What was measured:
Rattus norvegicus [1] = experiment: Hypoglycemic activity in STZ-nicotinamide Wistar rat model of diabetes at 50 mg/kg administered intragastrically as single dose measured after 7 hrs relative to control; format: functional; conditions: route intragastric
Rattus norvegicus [2] = experiment: Hypoglycemic activity in STZ-nicotinamide Wistar rat model of diabetes at 50 mg/kg administered intragastrically as single dose; format: functional, organism-based; parameters: dose 50 mg/kg; conditions: TDE = time-dependent effect

Cc1c(C(=O)NN2CCCCC2)nn(-c2ccc(F)c(Cl)c2)c1-c1ccc(Cl)cc1
Activity (Rattus norvegicus [1]): 33.6%

Cc1c(C(=O)NN2CCCCC2)nn(-c2ccc(C(F)(F)F)cc2)c1-c1ccc(Cl)cc1
Activity (Rattus norvegicus [1]): 27.3%

Cc1c(C(=O)NN2CCCCC2)nn(-c2ccnc3cc(Cl)ccc23)c1-c1ccc(F)cc1
Activity (Rattus norvegicus [1]): 22.4%

Cc1c(C(=O)NN2CCCCC2)nn(-c2ccc(Cl)cc2Cl)c1-c1ccc(Cl)cc1 [RIMONABANT]
Activity (Rattus norvegicus [1]): 25.4%

Cc1c(C(=O)NN2CCCCC2)nn(-c2ccc(F)c(Cl)c2)c1-c1ccc(F)cc1
Activity (Rattus norvegicus [2]): tde
Activity (Rattus norvegicus [1]): 58.7%

Cc1c(C(=O)NN2CCCCC2)nn(-c2ccc(F)cc2F)c1-c1ccc(C(F)(F)F)cc1
Activity (Rattus norvegicus [1]): 54.2%

Cc1c(C(=O)NN2CCCCC2)nn(-c2ccc(F)cc2F)c1-c1ccc(F)cc1
Activity (Rattus norvegicus [2]): tde
Activity (Rattus norvegicus [1]): 49.4%

Cc1c(C(=O)NN2CCCCC2)nn(-c2ccc(Cl)cc2Cl)c1-c1ccc(C(F)(F)F)cc1
Activity (Rattus norvegicus [1]): 43.9%

Cc1c(C(=O)NN2CCCCC2)nn(-c2ccc(Cl)cc2Cl)c1-c1ccccc1
Activity (Rattus norvegicus [1]): 1.08%

Cc1c(C(=O)NN2CCCCC2)nn(-c2ccc(Cl)c(Cl)c2)c1-c1ccc(Cl)cc1
Activity (Rattus norvegicus [2]): tde
Activity (Rattus norvegicus [1]): 54.7%

Cc1c(C(=O)NN2CCCCC2)nn(-c2ccccc2)c1-c1ccccc1
Activity (Rattus norvegicus [1]): 37.2%

Cc1c(C(=O)NN2CCCCC2)nn(-c2ccnc3cc(Cl)ccc23)c1-c1ccc(Cl)cc1
Activity (Rattus norvegicus [1]): 34.2%

COc1ccc(Cl)cc1C(=O)NCCc1ccc(S(=O)(=O)NC(=O)NC2CCCCC2)cc1 [GLYBURIDE]
Activity (Rattus norvegicus [1]): 38%

Cc1c(C(=O)NN2CCCCC2)nn(-c2ccc(C(F)(F)F)cc2)c1-c1ccc(Br)cc1
Activity (Rattus norvegicus [1]): -2.4%
